EC50 data for 6 molecules are collected here from patent publication US7192924B2, “Corticotropin releasing factor 2 receptor agonists” (priority 2002, dated 2007).

Peptide text beside a SMILES is read from it. Some results are limits rather than exact numbers.

The target of one experiment is T1, CRF2R (Homo sapiens, UniProt Q13324).
T1 sequence (Q13324 1-411): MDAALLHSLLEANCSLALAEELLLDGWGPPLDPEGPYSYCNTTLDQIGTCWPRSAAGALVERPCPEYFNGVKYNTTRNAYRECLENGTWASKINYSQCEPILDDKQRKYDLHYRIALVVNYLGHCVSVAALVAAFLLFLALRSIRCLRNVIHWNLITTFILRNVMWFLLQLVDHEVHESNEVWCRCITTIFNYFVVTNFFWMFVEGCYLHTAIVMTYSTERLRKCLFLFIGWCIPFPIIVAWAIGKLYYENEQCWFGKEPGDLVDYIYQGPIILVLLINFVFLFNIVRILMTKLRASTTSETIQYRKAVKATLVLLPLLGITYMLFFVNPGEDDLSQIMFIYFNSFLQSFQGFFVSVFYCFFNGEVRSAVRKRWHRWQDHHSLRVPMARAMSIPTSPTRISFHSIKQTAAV
The experiment in a line: CRF2R agonist activity (EC50, Emax), called comparative CRF binding. The class given is cell-based. To be noted: read-out: CRF2R EC50. Summed up:
(§1)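 Recombinant CRF1R or CRF2R cells were exposed to peptide. Reporter expression linked to cAMP response element was then quantitated, relative to vehicle control.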

The target in the next experiment is T2, CRF1R (Homo sapiens, UniProt P34998).
T2 sequence (P34998 24-415): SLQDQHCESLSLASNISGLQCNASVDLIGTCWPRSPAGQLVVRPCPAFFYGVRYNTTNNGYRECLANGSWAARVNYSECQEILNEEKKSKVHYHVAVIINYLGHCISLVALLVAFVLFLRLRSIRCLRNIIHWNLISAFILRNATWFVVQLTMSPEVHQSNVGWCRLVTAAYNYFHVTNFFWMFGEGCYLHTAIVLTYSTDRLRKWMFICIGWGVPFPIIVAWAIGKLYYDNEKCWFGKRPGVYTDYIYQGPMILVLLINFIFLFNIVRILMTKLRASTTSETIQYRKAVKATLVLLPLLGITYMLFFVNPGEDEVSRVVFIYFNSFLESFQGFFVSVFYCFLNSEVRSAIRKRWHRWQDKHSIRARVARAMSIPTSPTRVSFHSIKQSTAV
Put plainly: CRF1R agonist activity (EC50, Emax), called comparative CRF binding. To be noted: read-out: CRF1R EC50. Type of experiment: cell-based. Summed up: as §1

Usually EC50 stands for the concentration giving half of the maximal effect. For `CC[C@H](C)[C@H](NC(=O)[C@H](CCCNC(=N)N)NC(=O)[C@H](C)NC(=O)[C@H](CC(N)=O)NC(=O)[C@H](CCC(N)=O)NC(=O)[C@H](CCC(=O)O)NC(=O)[C@H](C)NC(=O)[C@H](CCCNC(=N)N)NC(=O)[C@H](CCC(=O)O)NC(=O)[C@H](CCCNC(=N)N)NC(=O)[C@H](CCC(N)=O)NC(=O)[C@H](CO)NC(=O)[C@H](CCC(N)=O)NC(=O)[C@@H](NC(=O)[C@H](CCCCN)NC(=O)[C@H](CCC(=O)O)NC(=O)[C@H](CC(C)C)NC(=O)[C@H](CCC(=O)O)NC(=O)[C@H](CC(C)C)NC(=O)[C@H](CC(C)C)NC(=O)[C@@H](NC(=O)[C@H](CCCNC(=N)N)NC(=O)[C@H](CC(C)C)NC(=O)[C@H](CC(C)C)NC(=O)[C@H](Cc1ccccc1)NC(=O)[C@H](CC(C)C)NC(=O)[C@@H]1CCCN1C(=O)[C@H](CC(C)C)NC(=O)[C@H](CC(=O)O)NC(=O)[C@@H](NC(=O)[C@H](CO)NC(=O)[C@H](CC(C)C)NC(=O)[C@H](CO)NC(=O)[C@@H]1CCCN1)[C@@H](C)CC)[C@@H](C)O)[C@@H](C)O)C(=O)N[C@@H](Cc1ccccc1)C(=O)N[C@@H](C)C(=O)N[C@@H](CCCNC(=N)N)C(=O)N[C@H](C(N)=O)C(C)C` [compound 331] (H-PSLSIDLPLFLLRTLLELEKTQSQRERAEQNARIFARV-NH2; N-terminus assumed), the EC50 at CRF2R was 9.85 nM; at CRF1R, ≥ 1000 nM.
Take `CC[C@H](C)[C@H](NC(=O)[C@H](CCCNC(=N)N)NC(=O)[C@H](C)NC(=O)[C@H](CC(N)=O)NC(=O)[C@H](CCC(N)=O)NC(=O)[C@H](CCC(=O)O)NC(=O)[C@H](C)NC(=O)[C@H](CCCNC(=N)N)NC(=O)[C@H](CCC(=O)O)NC(=O)[C@H](CCCNC(=N)N)NC(=O)[C@H](CCC(N)=O)NC(=O)[C@H](CO)NC(=O)[C@H](CCC(N)=O)NC(=O)[C@@H](NC(=O)[C@H](CCCCN)NC(=O)[C@H](CCC(=O)O)NC(=O)[C@H](CC(C)C)NC(=O)[C@H](CCC(=O)O)NC(=O)[C@H](CC(C)C)NC(=O)[C@H](CC(C)C)NC(=O)[C@@H](NC(=O)[C@H](CCCNC(=N)N)NC(=O)[C@H](CC(C)C)NC(=O)[C@H](CC(C)C)NC(=O)[C@@H](NC(=O)[C@H](CC(C)C)NC(=O)[C@@H]1CCCN1C(=O)[C@H](CC(C)C)NC(=O)[C@H](CC(=O)O)NC(=O)[C@@H](NC(=O)[C@H](CO)NC(=O)[C@H](CC(C)C)NC(=O)[C@H](CO)NC(=O)[C@@H]1CCCN1)[C@@H](C)CC)[C@@H](C)CC)[C@@H](C)O)[C@@H](C)O)C(=O)N[C@@H](Cc1ccccc1)C(=O)N[C@@H](C)C(=O)N[C@@H](CCCNC(=N)N)C(=O)N[C@H](C(N)=O)C(C)C` [compound 332] (H-PSLSIDLPLILLRTLLELEKTQSQRERAEQNARIFARV-NH2; N-terminus assumed): the EC50 on CRF2R was 9.95 nM; on CRF1R it was ≥ 1000 nM.
Consider `CC[C@H](C)[C@H](NC(=O)[C@H](CCCNC(=N)N)NC(=O)[C@H](C)NC(=O)[C@H](CC(N)=O)NC(=O)[C@H](CCC(N)=O)NC(=O)[C@H](CCC(=O)O)NC(=O)[C@H](C)NC(=O)[C@H](CCCNC(=N)N)NC(=O)[C@H](CCC(=O)O)NC(=O)[C@H](CCCNC(=N)N)NC(=O)[C@H](CCC(N)=O)NC(=O)[C@H](CO)NC(=O)[C@H](CCC(N)=O)NC(=O)[C@@H](NC(=O)[C@H](CCCCN)NC(=O)[C@H](CCC(=O)O)NC(=O)[C@H](CC(C)C)NC(=O)[C@H](CCC(=O)O)NC(=O)[C@H](CC(C)C)NC(=O)[C@H](CC(C)C)NC(=O)[C@@H](NC(=O)[C@H](CCCNC(=N)N)NC(=O)[C@H](CC(C)C)NC(=O)[C@H](CC(C)C)NC(=O)[C@H](Cc1ccccc1)NC(=O)[C@H](CC(C)C)NC(=O)[C@@H]1CCCN1C(=O)[C@H](CC(C)C)NC(=O)[C@H](CC(=O)O)NC(=O)[C@@H](NC(=O)[C@H](CO)NC(=O)[C@H](CC(C)C)NC(=O)[C@H](CO)NC(=O)[C@@H]1CCCN1C(=O)[C@H](CC(N)=O)NC(=O)[C@@H](N)CC(=O)O)[C@@H](C)CC)[C@@H](C)O)[C@@H](C)O)C(=O)N[C@@H](Cc1ccccc1)C(=O)N[C@@H](CC(=O)O)C(=O)N[C@@H](CCCNC(=N)N)C(=O)N[C@H](C(N)=O)C(C)C` [compound 336] (H-DNPSLSIDLPLFLLRTLLELEKTQSQRERAEQNARIFDRV-NH2; N-terminus assumed), for which the EC50 was 17.8 nM at CRF2R and ≥ 1000 nM at CRF1R.
For `CC[C@H](C)[C@H](NC(=O)[C@H](CCCNC(=N)N)NC(=O)[C@H](C)NC(=O)[C@H](CC(N)=O)NC(=O)[C@H](CCC(N)=O)NC(=O)[C@H](CCC(=O)O)NC(=O)[C@H](C)NC(=O)[C@H](CCCNC(=N)N)NC(=O)[C@H](CCC(=O)O)NC(=O)[C@H](CCCNC(=N)N)NC(=O)[C@H](CCC(N)=O)NC(=O)[C@H](CO)NC(=O)[C@H](CCC(N)=O)NC(=O)[C@@H](NC(=O)[C@H](CCCCN)NC(=O)[C@H](CCC(=O)O)NC(=O)[C@H](CC(C)C)NC(=O)[C@H](CCC(=O)O)NC(=O)[C@H](CC(C)C)NC(=O)[C@H](CC(C)C)NC(=O)[C@@H](NC(=O)[C@H](CCCNC(=N)N)NC(=O)[C@H](CC(C)C)NC(=O)[C@H](CC(C)C)NC(=O)[C@H](CC(C)C)NC(=O)[C@H](CC(C)C)NC(=O)[C@@H]1CCCN1C(=O)[C@H](CC(C)C)NC(=O)[C@H](CC(=O)O)NC(=O)[C@@H](NC(=O)[C@H](CO)NC(=O)[C@H](CC(C)C)NC(=O)[C@H](CO)NC(=O)[C@@H]1CCCN1C(=O)[C@H](CC(N)=O)NC(=O)[C@@H](N)CC(=O)O)[C@@H](C)CC)[C@@H](C)O)[C@@H](C)O)C(=O)N[C@@H](Cc1ccccc1)C(=O)N[C@@H](CC(=O)O)C(=O)N[C@@H](CCCNC(=N)N)C(=O)N[C@H](C(N)=O)C(C)C` [compound 338] (H-DNPSLSIDLPLLLLRTLLELEKTQSQRERAEQNARIFDRV-NH2; N-terminus assumed) the same measures were 19.3 nM and ≥ 1000 nM.
For `CC[C@H](C)[C@H](NC(=O)[C@H](CCCNC(=N)N)NC(=O)[C@H](C)NC(=O)[C@H](CC(N)=O)NC(=O)[C@H](CCC(N)=O)NC(=O)[C@H](CCC(=O)O)NC(=O)[C@H](C)NC(=O)[C@H](CCCNC(=N)N)NC(=O)[C@H](CCC(=O)O)NC(=O)[C@H](CCCNC(=N)N)NC(=O)[C@H](CCC(N)=O)NC(=O)[C@H](CO)NC(=O)[C@H](CCC(N)=O)NC(=O)[C@@H](NC(=O)[C@H](CCCNC(=N)N)NC(=O)[C@H](C)NC(=O)[C@H](CC(C)C)NC(=O)[C@H](CCC(=O)O)NC(=O)[C@H](CC(C)C)NC(=O)[C@H](CC(C)C)NC(=O)[C@@H](NC(=O)[C@H](CCCNC(=N)N)NC(=O)[C@H](CC(C)C)NC(=O)[C@H](CC(C)C)NC(=O)[C@H](CC(C)C)NC(=O)[C@H](CC(C)C)NC(=O)[C@@H]1CCCN1C(=O)[C@H](CC(C)C)NC(=O)[C@H](CC(=O)O)NC(=O)[C@@H](NC(=O)[C@H](CO)NC(=O)[C@H](CC(C)C)NC(=O)[C@H](CO)NC(=O)[C@@H]1CCCN1C(=O)[C@H](CC(N)=O)NC(=O)[C@@H](N)CC(=O)O)[C@@H](C)CC)[C@@H](C)O)[C@@H](C)O)C(=O)N[C@@H](Cc1ccccc1)C(=O)N[C@@H](C)C(=O)N[C@@H](CCCNC(=N)N)C(=O)N[C@H](C(N)=O)C(C)C` [compound 340] (H-DNPSLSIDLPLLLLRTLLELARTQSQRERAEQNARIFARV-NH2; N-terminus assumed) the same measures were 7.99 nM and 739 nM.
As to `CC[C@H](C)[C@H](NC(=O)[C@H](CCCNC(=N)N)NC(=O)[C@H](C)NC(=O)[C@H](CC(N)=O)NC(=O)[C@H](CCC(N)=O)NC(=O)[C@H](CCC(=O)O)NC(=O)[C@H](C)NC(=O)[C@H](CCCNC(=N)N)NC(=O)[C@H](CCC(=O)O)NC(=O)[C@H](CCCNC(=N)N)NC(=O)[C@H](CCC(N)=O)NC(=O)[C@H](CO)NC(=O)[C@H](CCC(N)=O)NC(=O)[C@@H](NC(=O)[C@H](CCCCN)NC(=O)[C@H](CCC(=O)O)NC(=O)[C@H](CC(C)C)NC(=O)[C@H](CCC(=O)O)NC(=O)[C@H](CC(C)C)NC(=O)[C@H](CC(C)C)NC(=O)[C@@H](NC(=O)[C@H](CCCNC(=N)N)NC(=O)[C@H](CC(C)C)NC(=O)[C@H](CC(C)C)NC(=O)[C@H](CC(C)C)NC(=O)[C@H](CC(C)C)NC(=O)[C@@H]1CCCN1C(=O)[C@H](CC(C)C)NC(=O)[C@H](CC(=O)O)NC(=O)[C@@H](NC(=O)[C@H](CO)NC(=O)[C@H](CC(C)C)NC(=O)[C@H](CO)NC(=O)[C@@H]1CCCN1C(=O)[C@H](CC(N)=O)NC(=O)[C@@H](N)CC(=O)O)[C@@H](C)CC)[C@@H](C)O)[C@@H](C)O)C(=O)N[C@@H](Cc1ccccc1)C(=O)N[C@@H](C)C(=O)N[C@@H](CCCNC(=N)N)C(=O)N[C@H](C(N)=O)C(C)C` [compound 341] (H-DNPSLSIDLPLLLLRTLLELEKTQSQRERAEQNARIFARV-NH2; N-terminus assumed), the EC50 at CRF2R turned out to be 8.83 nM; on CRF1R it was 850 nM.
